According to PubChem BioAssay (NCI):
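Results reflect a 48-hour exposure of cells in 96-well plates to compound at five concentrations. GI50 = concentration required for 50% inhibition of growth. TGI is the concentration that stops growth completely.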

Assays:
Assay in all cases: inhibition of tumour cell growth, NCI panel, 48 h
786-0 renal = tested on: 786-0 renal
A498 renal = tested on: A498 renal
A549 NSCLC = tested on: A549 NSCLC
ACHN renal = tested on: ACHN renal
BT-549 breast = tested on: BT-549 breast
CAKI-1 renal = tested on: CAKI-1 renal
CCRF-CEM leukemia = tested on: CCRF-CEM leukemia
COLO 205 colon = tested on: COLO 205 colon
DU-145 prostate = tested on: DU-145 prostate
EKVX NSCLC = tested on: EKVX NSCLC
HCT-116 colon = tested on: HCT-116 colon
HCT-15 colon = tested on: HCT-15 colon
HL-60(TB) leukemia = tested on: HL-60(TB) leukemia
HOP-62 NSCLC = tested on: HOP-62 NSCLC
HOP-92 NSCLC = tested on: HOP-92 NSCLC
HS 578T breast = tested on: HS 578T breast
HT29 colon = tested on: HT29 colon
IGROV1 ovarian = tested on: IGROV1 ovarian
K-562 leukemia = tested on: K-562 leukemia
KM12 colon = tested on: KM12 colon
LOX IMVI melanoma = tested on: LOX IMVI melanoma
M14 melanoma = tested on: M14 melanoma
MALME-3M melanoma = tested on: MALME-3M melanoma
MCF7 breast = tested on: MCF7 breast
MDA-MB-231 breast = tested on: MDA-MB-231 breast
MDA-MB-435 = tested on: MDA-MB-435
MDA-N = tested on: MDA-N
MOLT-4 leukemia = tested on: MOLT-4 leukemia
NCI-H226 lung = tested on: NCI-H226 lung
NCI-H23 lung = tested on: NCI-H23 lung
NCI-H522 lung = tested on: NCI-H522 lung
NCI/ADR-RES ovarian = tested on: NCI/ADR-RES ovarian
OVCAR-3 ovarian = tested on: OVCAR-3 ovarian
OVCAR-4 ovarian = tested on: OVCAR-4 ovarian
OVCAR-5 ovarian = tested on: OVCAR-5 ovarian
OVCAR-8 ovarian = tested on: OVCAR-8 ovarian
PC-3 prostate = tested on: PC-3 prostate
RPMI-8226 leukemia = tested on: RPMI-8226 leukemia
RXF 393 renal = tested on: RXF 393 renal
SF-268 CNS = tested on: SF-268 CNS
SF-295 CNS = tested on: SF-295 CNS
SK-MEL-2 melanoma = tested on: SK-MEL-2 melanoma
SK-MEL-28 melanoma = tested on: SK-MEL-28 melanoma
SK-MEL-5 melanoma = tested on: SK-MEL-5 melanoma
SK-OV-3 ovarian = tested on: SK-OV-3 ovarian
SN12C renal = tested on: SN12C renal
SNB-19 CNS = tested on: SNB-19 CNS
SNB-75 CNS = tested on: SNB-75 CNS
SW-620 colon = tested on: SW-620 colon
T-47D breast = tested on: T-47D breast
TK-10 renal = tested on: TK-10 renal
U251 CNS = tested on: U251 CNS
UACC-257 melanoma = tested on: UACC-257 melanoma
UACC-62 melanoma = tested on: UACC-62 melanoma
UO-31 renal = tested on: UO-31 renal
HCC-2998 colon = tested on: HCC-2998 colon
NCI-H460 lung = tested on: NCI-H460 lung
SF-539 CNS = tested on: SF-539 CNS

CN1CCCC1c1cccnc1.O=C(O)c1ccccc1O.O=C([O-])c1ccccc1[OH2+].O=C([O-])c1ccccc1[OH2+].O=C([O-])c1ccccc1[OH2+].[Cu+2] (centres undefined)
GI50 (786-0 renal): > 100 µM | TGI (786-0 renal): > 100 µM | GI50 (A498 renal): 31.3 µM | TGI (A498 renal): 76.1 µM | GI50 (A549 NSCLC): 78.9 µM | TGI (A549 NSCLC): > 100 µM | GI50 (ACHN renal): > 100 µM | TGI (ACHN renal): > 100 µM | GI50 (BT-549 breast): > 100 µM | TGI (BT-549 breast): > 100 µM | GI50 (CAKI-1 renal): > 100 µM | TGI (CAKI-1 renal): > 100 µM | GI50 (CCRF-CEM leukemia): > 100 µM | TGI (CCRF-CEM leukemia): > 100 µM | GI50 (COLO 205 colon): > 100 µM | TGI (COLO 205 colon): > 100 µM | GI50 (DU-145 prostate): > 100 µM | TGI (DU-145 prostate): > 100 µM | GI50 (EKVX NSCLC): > 100 µM | TGI (EKVX NSCLC): > 100 µM | GI50 (HCT-116 colon): > 100 µM | TGI (HCT-116 colon): > 100 µM | GI50 (HCT-15 colon): > 100 µM | TGI (HCT-15 colon): > 100 µM | GI50 (HL-60(TB) leukemia): > 100 µM | TGI (HL-60(TB) leukemia): > 100 µM | GI50 (HOP-62 NSCLC): > 100 µM | TGI (HOP-62 NSCLC): > 100 µM | GI50 (HOP-92 NSCLC): > 100 µM | TGI (HOP-92 NSCLC): > 100 µM | GI50 (HS 578T breast): > 100 µM | TGI (HS 578T breast): > 100 µM | GI50 (HT29 colon): > 100 µM | TGI (HT29 colon): > 100 µM | GI50 (IGROV1 ovarian): 91.1 µM | TGI (IGROV1 ovarian): > 100 µM | GI50 (K-562 leukemia): > 100 µM | TGI (K-562 leukemia): > 100 µM | GI50 (KM12 colon): > 100 µM | TGI (KM12 colon): > 100 µM | GI50 (LOX IMVI melanoma): > 100 µM | TGI (LOX IMVI melanoma): > 100 µM | GI50 (M14 melanoma): > 100 µM | TGI (M14 melanoma): > 100 µM | GI50 (MALME-3M melanoma): > 100 µM | TGI (MALME-3M melanoma): > 100 µM | GI50 (MCF7 breast): 45.3 µM | TGI (MCF7 breast): > 100 µM | GI50 (MDA-MB-231 breast): > 100 µM | TGI (MDA-MB-231 breast): > 100 µM | GI50 (MDA-MB-435): > 100 µM | TGI (MDA-MB-435): > 100 µM | GI50 (MDA-N): > 100 µM | TGI (MDA-N): > 100 µM | GI50 (MOLT-4 leukemia): > 100 µM | TGI (MOLT-4 leukemia): > 100 µM | GI50 (NCI-H226 lung): > 100 µM | TGI (NCI-H226 lung): > 100 µM | GI50 (NCI-H23 lung): > 100 µM | TGI (NCI-H23 lung): > 100 µM | GI50 (NCI-H522 lung): > 100 µM | TGI (NCI-H522 lung): > 100 µM | GI50 (NCI/ADR-RES ovarian): > 100 µM | TGI (NCI/ADR-RES ovarian): > 100 µM | GI50 (OVCAR-3 ovarian): > 100 µM | TGI (OVCAR-3 ovarian): > 100 µM | GI50 (OVCAR-4 ovarian): 56.1 µM | TGI (OVCAR-4 ovarian): > 100 µM | GI50 (OVCAR-5 ovarian): > 100 µM | TGI (OVCAR-5 ovarian): > 100 µM | GI50 (OVCAR-8 ovarian): > 100 µM | TGI (OVCAR-8 ovarian): > 100 µM | GI50 (PC-3 prostate): > 100 µM | TGI (PC-3 prostate): > 100 µM | GI50 (RPMI-8226 leukemia): > 100 µM | TGI (RPMI-8226 leukemia): > 100 µM | GI50 (RXF 393 renal): > 100 µM | TGI (RXF 393 renal): > 100 µM | GI50 (SF-268 CNS): > 100 µM | TGI (SF-268 CNS): > 100 µM | GI50 (SF-295 CNS): > 100 µM | TGI (SF-295 CNS): > 100 µM | GI50 (SK-MEL-2 melanoma): > 100 µM | TGI (SK-MEL-2 melanoma): > 100 µM | GI50 (SK-MEL-28 melanoma): > 100 µM | TGI (SK-MEL-28 melanoma): > 100 µM | GI50 (SK-MEL-5 melanoma): 33.3 µM | TGI (SK-MEL-5 melanoma): > 100 µM | GI50 (SK-OV-3 ovarian): > 100 µM | TGI (SK-OV-3 ovarian): > 100 µM | GI50 (SN12C renal): > 100 µM | TGI (SN12C renal): > 100 µM | GI50 (SNB-19 CNS): 39.6 µM | TGI (SNB-19 CNS): > 100 µM | GI50 (SNB-75 CNS): > 100 µM | TGI (SNB-75 CNS): > 100 µM | GI50 (SW-620 colon): > 100 µM | TGI (SW-620 colon): > 100 µM | GI50 (T-47D breast): > 100 µM | TGI (T-47D breast): > 100 µM | GI50 (TK-10 renal): > 100 µM | TGI (TK-10 renal): > 100 µM | GI50 (U251 CNS): > 100 µM | TGI (U251 CNS): > 100 µM | GI50 (UACC-257 melanoma): > 100 µM | TGI (UACC-257 melanoma): > 100 µM | GI50 (UACC-62 melanoma): > 100 µM | TGI (UACC-62 melanoma): > 100 µM | GI50 (UO-31 renal): > 100 µM | TGI (UO-31 renal): > 100 µM

Cc1cc(-n2c(/C=C/c3ccc(Cl)cc3)nc3cc(Cl)ccc3c2=O)on1
TGI (786-0 renal): 5.19 µM | TGI (A498 renal): 11.5 µM | TGI (A549 NSCLC): > 50 µM | TGI (ACHN renal): 24.1 µM | TGI (BT-549 breast): > 50 µM | TGI (CAKI-1 renal): > 50 µM | TGI (CCRF-CEM leukemia): > 50 µM | TGI (COLO 205 colon): > 50 µM | TGI (DU-145 prostate): > 50 µM | TGI (EKVX NSCLC): > 50 µM | TGI (HCC-2998 colon): > 50 µM | TGI (HCT-116 colon): 29.6 µM | TGI (HCT-15 colon): > 50 µM | TGI (HL-60(TB) leukemia): > 50 µM | TGI (HOP-62 NSCLC): 18.3 µM | TGI (HOP-92 NSCLC): > 50 µM | TGI (HS 578T breast): 31.4 µM | TGI (HT29 colon): > 50 µM | TGI (IGROV1 ovarian): > 50 µM | TGI (K-562 leukemia): > 50 µM | TGI (KM12 colon): > 50 µM | TGI (LOX IMVI melanoma): > 50 µM | TGI (M14 melanoma): 32.9 µM | TGI (MALME-3M melanoma): > 50 µM | TGI (MCF7 breast): > 50 µM | TGI (MDA-MB-231 breast): 42.4 µM | TGI (MDA-MB-435): > 50 µM | TGI (MDA-N): > 50 µM | TGI (MOLT-4 leukemia): > 50 µM | TGI (NCI-H226 lung): 33.2 µM | TGI (NCI-H23 lung): > 50 µM | TGI (NCI-H460 lung): 22 µM | TGI (NCI-H522 lung): > 50 µM | TGI (NCI/ADR-RES ovarian): 39 µM | TGI (OVCAR-3 ovarian): 30.9 µM | TGI (OVCAR-4 ovarian): 4.05 µM | TGI (OVCAR-5 ovarian): > 50 µM | TGI (OVCAR-8 ovarian): 47.7 µM | TGI (PC-3 prostate): > 50 µM | TGI (SF-268 CNS): > 50 µM | TGI (SF-295 CNS): > 50 µM | TGI (SF-539 CNS): > 50 µM | TGI (SK-MEL-28 melanoma): > 50 µM | TGI (SK-MEL-5 melanoma): > 50 µM | TGI (SK-OV-3 ovarian): 42.3 µM | TGI (SN12C renal): > 50 µM | TGI (SNB-19 CNS): 26.6 µM | TGI (SW-620 colon): > 50 µM | TGI (T-47D breast): > 50 µM | TGI (TK-10 renal): > 50 µM | TGI (U251 CNS): 16.4 µM | TGI (UACC-257 melanoma): > 50 µM | TGI (UACC-62 melanoma): > 50 µM | TGI (UO-31 renal): 19.7 µM
